From ChEMBL document CHEMBL1201862, “PubChem BioAssay data set” (2004)
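Where inhibition never reached the appropriate level, the endpoint shown equals the highest concentration tested. Otherwise, values were interpolated linearly from a five-concentration, 48-hour dose response in 96-well plates. At the GI50, growth is halved.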 Calls of active or inactive are those of the source. Rule as the data show it: active = GI50 up to about 1.1 µM and inactive = higher.

How the values were obtained:
Experiment in all cases: NCI tumour cell line growth inhibition, 48 h
CAKI-1 = test system: CAKI-1
HCC 2998 = test system: HCC 2998
HL-60 = test system: HL-60
HOP-92 = test system: HOP-92
MCF7 = test system: MCF7
MDA-MB-231 = test system: MDA-MB-231
MDA-MB-435 = test system: MDA-MB-435
Malme-3M = test system: Malme-3M
NCI-H226 = test system: NCI-H226
NCI-H460 = test system: NCI-H460
NCI-H522 = test system: NCI-H522
OVCAR-5 = test system: OVCAR-5
RPMI-8226 = test system: RPMI-8226
SF-539 = test system: SF-539
SNB-19 = test system: SNB-19
SR = test system: SR
SW-620 = test system: SW-620
U-251 = test system: U-251
RXF 393 = test system: RXF 393
T47D = test system: T47D

Measured: GI50

CC1CCCC(CC(=O)O)(CC(=O)O)C1 (stereo not drawn)
inactive: CAKI-1 > 100 µM | HCC 2998 > 100 µM | HL-60 > 100 µM | HOP-92 > 100 µM | MCF7 > 100 µM | MDA-MB-231 > 100 µM | MDA-MB-435 > 100 µM | Malme-3M > 100 µM | NCI-H226 > 100 µM | NCI-H460 > 100 µM | NCI-H522 > 100 µM | OVCAR-5 > 100 µM | RPMI-8226 > 100 µM | SF-539 > 100 µM | SNB-19 > 100 µM | SR > 100 µM | SW-620 > 100 µM | U-251 > 100 µM

CCOC(=O)CCC(NC(=O)c1ccc(/N=C/c2nc3cc(C(F)(F)F)ccc3nc2-c2ccccc2)cc1)C(=O)OCC (stereo not drawn)
inactive: CAKI-1 32.4 µM | HCC 2998 > 50 µM | HL-60 8.91 µM | HOP-92 4.88 µM | Malme-3M 6.4 µM | NCI-H226 > 50 µM | NCI-H460 24 µM | NCI-H522 12.3 µM | OVCAR-5 > 50 µM | RPMI-8226 > 50 µM | RXF 393 7.14 µM | SF-539 11.4 µM | SNB-19 10.6 µM | SR > 50 µM | SW-620 > 50 µM | U-251 6.07 µM

C=CCC(NCc1ccccc1)[C@H](OCc1ccccc1)[C@@H]1COC(C)(C)O1 (stereo partly drawn)
inactive: HOP-92 12.7 µM | MCF7 29.4 µM | MDA-MB-231 > 100 µM | MDA-MB-435 36.1 µM | Malme-3M 22.6 µM | NCI-H226 15.6 µM | OVCAR-5 46.2 µM | RPMI-8226 18.5 µM | SNB-19 72.8 µM | SR 21.1 µM | SW-620 41.9 µM | U-251 37.6 µM

CN1CC[C@]2(c3cccc(O)c3)CC(=O)/C(=C/c3ccccc3)[C@@H]1C2.[O-][Cl+3]([O-])([O-])O
inactive: CAKI-1 2.29 µM | HCC 2998 2.59 µM | HL-60 1.8 µM | HOP-92 2.09 µM | MCF7 2.19 µM | MDA-MB-231 2.34 µM | MDA-MB-435 1.72 µM | Malme-3M 2.64 µM | NCI-H226 15 µM | NCI-H460 2.17 µM | NCI-H522 2.74 µM | OVCAR-5 14.4 µM | RPMI-8226 1.86 µM | RXF 393 1.49 µM | SF-539 1.95 µM | SNB-19 5.4 µM | SR 2.41 µM | SW-620 2.23 µM | U-251 2.54 µM

O=S1(=O)c2ccccc2N2CCCc3cc(Cl)cc1c32
inactive: CAKI-1 61.2 µM | HCC 2998 > 100 µM | HL-60 > 100 µM | MCF7 > 100 µM | MDA-MB-231 37 µM | MDA-MB-435 > 100 µM | Malme-3M 70.6 µM | NCI-H226 > 100 µM | NCI-H460 > 100 µM | OVCAR-5 > 100 µM | RXF 393 25.2 µM | SF-539 35 µM | SNB-19 56.6 µM | SR > 100 µM | SW-620 > 100 µM

CC(=O)Oc1c(N2CCCCC2)c(C(=O)c2ccccc2)c(O)c2ccn(N(C)C)c12
inactive: CAKI-1 15.4 µM | HCC 2998 18.5 µM | HL-60 6.38 µM | HOP-92 23.9 µM | MCF7 10.5 µM | MDA-MB-231 14 µM | MDA-MB-435 19.7 µM | Malme-3M 17.3 µM | NCI-H226 14.2 µM | NCI-H460 21.2 µM | OVCAR-5 25.5 µM | RPMI-8226 7.01 µM | RXF 393 20.7 µM | SF-539 18.5 µM | SNB-19 25.4 µM | SW-620 17.3 µM | U-251 16.7 µM

CNC(=S)N/N=C(C)\C(=N/NC(=S)NC)c1ccccc1
inactive: CAKI-1 96.6 µM | HCC 2998 > 100 µM | MCF7 82.8 µM | MDA-MB-231 > 100 µM | Malme-3M 76.7 µM | NCI-H226 63.7 µM | NCI-H460 25.7 µM | NCI-H522 28.9 µM | OVCAR-5 > 100 µM | RXF 393 56.8 µM | SF-539 > 100 µM | SNB-19 70.3 µM

CCOC(=O)c1nnsc1NC(=O)Nc1ccc(Cl)cc1
inactive: HCC 2998 38.5 µM | MDA-MB-231 20.7 µM | MDA-MB-435 > 100 µM | Malme-3M 75.5 µM | NCI-H226 36.6 µM | NCI-H460 7 µM | NCI-H522 15.8 µM | OVCAR-5 > 100 µM | RPMI-8226 44.5 µM | RXF 393 > 100 µM | SNB-19 > 100 µM | SW-620 > 100 µM | T47D 34.3 µM | U-251 > 100 µM

Cc1cc(S(=O)(=O)Nc2nc(N)nc(N3N=CCC3C)n2)c(SCC(=O)O)cc1Cl (stereo not drawn)
inactive: CAKI-1 > 10 µM | HCC 2998 > 10 µM | HL-60 > 10 µM | MCF7 > 10 µM | MDA-MB-231 > 10 µM | MDA-MB-435 > 10 µM | Malme-3M > 10 µM | NCI-H226 > 10 µM | NCI-H460 > 10 µM | NCI-H522 > 10 µM | OVCAR-5 > 10 µM | RPMI-8226 > 10 µM | RXF 393 > 10 µM | SF-539 > 10 µM | SNB-19 > 10 µM | SW-620 > 10 µM | T47D > 10 µM | U-251 > 10 µM

Nc1ncnc2c1cnn2Cc1cn(COCC(O)CO)nn1 (stereo not drawn)
inactive: CAKI-1 > 100 µM | HCC 2998 > 100 µM | HL-60 > 100 µM | HOP-92 > 100 µM | MCF7 > 100 µM | MDA-MB-231 > 100 µM | MDA-MB-435 > 100 µM | NCI-H522 16.1 µM | OVCAR-5 > 100 µM | SF-539 > 100 µM | SNB-19 > 100 µM | SW-620 > 100 µM | T47D > 100 µM | U-251 > 100 µM

CN1CSC(=S)N(c2cccc(C(F)(F)F)c2)C1
inactive: CAKI-1 26.4 µM | HCC 2998 18.6 µM | HL-60 25.5 µM | HOP-92 18.9 µM | MCF7 17.3 µM | MDA-MB-435 22.5 µM | Malme-3M 18.7 µM | NCI-H226 24.3 µM | NCI-H460 20.2 µM | NCI-H522 16.4 µM | OVCAR-5 18.6 µM | RPMI-8226 17.5 µM | RXF 393 37.2 µM | SF-539 20.7 µM | SNB-19 21.5 µM | SR 23.4 µM | SW-620 31.6 µM | T47D 31.7 µM | U-251 32 µM

CCOC(=O)c1cc(-c2cc(OC)c(OC)c([N+](=O)[O-])c2)c([N+](=O)[O-])n1C
inactive: HCC 2998 3.26 µM | HL-60 3.37 µM | HOP-92 > 10 µM | MDA-MB-435 2.04 µM | Malme-3M 8.02 µM | NCI-H226 > 10 µM | NCI-H460 3.9 µM | NCI-H522 4.13 µM | OVCAR-5 > 10 µM | RXF 393 9.59 µM | SF-539 8.32 µM | SNB-19 > 10 µM | SR 4.81 µM | U-251 4.26 µM

CN1CCN(c2nc3ccccc3nc2C(=O)c2ccc(Cl)cc2)CC1
inactive: CAKI-1 40.4 µM | HCC 2998 33.7 µM | HL-60 31 µM | HOP-92 26.5 µM | MCF7 27.7 µM | MDA-MB-435 44.5 µM | Malme-3M 16.7 µM | NCI-H460 27.1 µM | NCI-H522 38.1 µM | OVCAR-5 > 100 µM | RPMI-8226 22.2 µM | RXF 393 24.5 µM | SF-539 69.2 µM | SNB-19 > 100 µM | SR 47.4 µM | SW-620 61 µM | T47D 45.6 µM | U-251 57.1 µM

Cc1cc(-c2c(Br)cc(C(=O)O)n2C)on1
inactive: CAKI-1 > 100 µM | HL-60 > 100 µM | HOP-92 > 100 µM | MDA-MB-231 > 100 µM | MDA-MB-435 > 100 µM | Malme-3M > 100 µM | NCI-H226 > 100 µM | NCI-H460 > 100 µM | NCI-H522 > 100 µM | OVCAR-5 > 100 µM | RPMI-8226 > 100 µM | SF-539 > 100 µM | SNB-19 > 100 µM | SW-620 > 100 µM | T47D > 100 µM | U-251 > 100 µM

NC(=O)c1c2c(cc3c(=O)c4ccccc4[nH]c13)CCCC2
inactive: CAKI-1 > 100 µM | HCC 2998 > 100 µM | HL-60 > 100 µM | HOP-92 > 100 µM | Malme-3M > 73.6 µM | NCI-H226 > 100 µM | NCI-H460 > 100 µM | NCI-H522 > 100 µM | OVCAR-5 > 100 µM | RPMI-8226 > 46.8 µM | RXF 393 > 100 µM | SF-539 > 100 µM | SNB-19 > 71.4 µM | SR > 100 µM | SW-620 > 100 µM | U-251 > 100 µM

CN1C(=O)C(O)CC1c1cccc(F)c1 (stereo not drawn)
inactive: CAKI-1 > 100 µM | HCC 2998 > 100 µM | HL-60 > 100 µM | HOP-92 > 100 µM | MCF7 > 100 µM | MDA-MB-231 > 100 µM | MDA-MB-435 > 100 µM | Malme-3M > 100 µM | NCI-H226 > 100 µM | NCI-H460 > 100 µM | NCI-H522 > 100 µM | OVCAR-5 > 100 µM | RPMI-8226 > 100 µM | RXF 393 > 100 µM | SF-539 > 100 µM | SNB-19 > 100 µM | SR > 100 µM | SW-620 > 100 µM | U-251 > 100 µM

CC1CC2C3CC(F)C4=CC(=O)C=CC4(C)C3(F)C(O)CC2(C)C1(O)C(=O)CO (stereo not drawn)
inactive: CAKI-1 > 100 µM | HCC 2998 > 100 µM | HL-60 > 100 µM | HOP-92 > 100 µM | Malme-3M > 100 µM | NCI-H226 > 100 µM | NCI-H460 > 100 µM | NCI-H522 > 100 µM | OVCAR-5 > 10 µM | RPMI-8226 > 100 µM | RXF 393 > 100 µM | SF-539 > 100 µM | SNB-19 > 100 µM | SR > 100 µM | SW-620 > 100 µM | U-251 > 100 µM
